We go through one compound from patent US20030170662A1, “Method for screening substance specifically inhibiting non-mevalonate pathway” (priority 2000, published 2003).

For test [1], the system named is B. subtilis 168 (pBMV4). In words: paper disk growth inhibition on agar medium, B. subtilis 168 (pBMV4). Format: cell-based, Bacillus subtilis. As to conditions: 50 μl of 5 μg/ml fosmidomycin on paper disk, 37° C. overnight. The method, then:
The B. subtilis 168 (pBMV4) was subjected to shaking culturing at 37° C. overnight in 5 ml of LB liquid medium containing 3.4 μg/ml chloramphenicol. […]
The gene on the pBMV4 is expressed only in the presence of IPTG 50 μl of aqueous solution of 5 μg/ml fosmidomycin was dropped on a paper disk, and then the paper disk was placed on the above two types of agar mediums, followed by culturing at 37° C. overnight.

Test [2] has as its system B. subtilis delypgA (pBMV4). In words: paper disk growth inhibition on agar medium, B. subtilis delypgA (pBMV4). Format: cell-based, Bacillus subtilis. As to conditions: 50 μl of 5 μg/ml fosmidomycin on paper disk, 37° C. overnight. The method, then: The B. subtilis delypgA (pBMV4) was subjected to shaking culturing at 37° C. overnight in 5 ml of LB liquid medium containing 3.4 μg/ml chloramphenicol.
One thousandth amount of the above culture solution was added into Nutrient Broth “Eiken” (Eiken Chemical Co., Ltd.) containing 3.4 μg/ml chloramphenicol to prepare an agar medium.
One thousandth amount of the above culture solution was added into Nutrient Broth “Eiken” containing 1 mM IPTG, 3.4 μg/ml chloramphenicol and 0.02% mevalonic acid to prepare an agar medium. The gene on the pBMV4 is expressed only in the presence of IPTG
50 μl of aqueous solution of 5 μg/ml fosmidomycin was dropped on a paper disk, and then the paper disk was placed on the above two types of agar mediums, followed by culturing at 37° C. overnight.

Setting [3] is: medium to which mevalonic acid and IPTG were added.
[4] abbreviates: medium to which mevalonic acid and IPTG were not added.

As for `O=CN(O)CCCP(=O)(O)O` [fosmidomycin], the growth inhibition ring entry in test [1] (setting [3]) is “not observed”; in test [1] (setting [4]) it was “observed”; in test [2] (setting [3]), “not observed”; in test [2] (setting [4]) it was “observed”.
